Measured values from patent US5137822A, “Transformed yeasts having steroid-hydroxylase activity and process for hydroxylation of steroids using the said transformed yeasts” (Director-General of Agency of Industrial Science & …, priority 1987, dated 1992).
Where two headings read alike, the source gives them in different places. Blank lines part the entries; values can stand above or below the molecule they belong to.

Columns and labels:
[1] = target: T1, bovine adrenocortical cytochrome P-45017α (Bos taurus, UniProt P05185); assay: C17-20-lyase activity of P-45017α-producing yeasts against 17-hydroxyprogesterone; type: cell-based; parameters: made in house; host or cells: Saccharomyces cerevisiae AH22(pAα1), microsomal fraction
T1 sequence (P05185 1-509): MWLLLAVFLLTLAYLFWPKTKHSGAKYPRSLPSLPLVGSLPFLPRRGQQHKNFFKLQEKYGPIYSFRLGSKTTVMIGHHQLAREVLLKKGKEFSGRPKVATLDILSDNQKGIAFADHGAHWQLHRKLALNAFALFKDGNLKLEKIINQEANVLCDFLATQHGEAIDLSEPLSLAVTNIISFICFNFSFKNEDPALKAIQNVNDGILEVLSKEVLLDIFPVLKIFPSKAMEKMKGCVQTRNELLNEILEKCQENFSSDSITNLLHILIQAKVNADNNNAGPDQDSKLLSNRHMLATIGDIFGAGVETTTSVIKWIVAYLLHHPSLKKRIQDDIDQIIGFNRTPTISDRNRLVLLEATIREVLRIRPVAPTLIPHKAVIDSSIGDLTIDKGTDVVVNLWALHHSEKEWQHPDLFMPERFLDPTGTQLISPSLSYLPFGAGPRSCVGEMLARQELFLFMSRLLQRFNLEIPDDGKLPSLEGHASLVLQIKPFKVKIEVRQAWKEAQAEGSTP

[2] = target: T1, bovine adrenocortical cytochrome P-45017α; settings: s. cerevisiae ah22(paα1) culture, 10 µM
Description: S. cerevisiae AH22(pAα1) and AH22(pAAH5) were separately grown to each 7×10^6 cells/ml in an SD-synthetic-medium (2.0% glucose, 0.67% yeast nitrogen base without amino acids, and 20 μg/ml histidine). To 5.0 ml each of the medium was added 50 μl of 1 mM progesterone in ethanol solution containing 10 μCi of [^3 H]-progesterone (or 50 μl of 1 mM pregnenolone in ethanol solution containing 10 μCi of [3H]-pregnenolone) and the mixture was cultured while shaking. Each 1.0 ml of the medium was sampled at 0, 2, 5 and 23 hours and centrifugated. After 2.0 ml of dichloromethane was added to 0.8 ml of the supernatant, the mixture was vigorously agitated and centrifugated. The dichloromethane layer (1.0 ml) was evaporated to dryness and the residue was dissolved in 20 μl of ethanol/ethyl acetate (1:1 by volume). Ten μl of the solution was applied to TLC. The TLC was developed with chloroform containing 25% ethyl acetate at room temperature for 50 minutes and radioautographed. The silica gel of the spot on the film was scraped out from the plate and the radio activity of the gel was measured with a liquid scintillation counter.

[3] = target: T1, bovine adrenocortical cytochrome P-45017α; settings: microsomes, 5 min, pH 7.4
Description: After S. cerevisiae AH22(pAα1) was grown to a cell density of 2.0×10^7 cells/ml, the cells were harvested from 1.8 l of the culture broth and suspended in 50 ml of a buffer A (10 mM Tris-HCl (pH 7.5), 2M sorbitol, 0.1 mM DTT and 0.2 mM EDTA). After 20 mg of Zymolyase 100,000 was added to the suspension, the mixture was incubated at 30° C. for 1 hour. The resulting spheroplasts were harvested by centrifugation (5,000 x g for 10 minutes). They were suspended in 100 ml of buffer A and centrifuged. By repeating the centrifugation, the spheroplasts were washed. They were resuspended in 30 ml of a buffer solution (10 mM Tris-HCl (pH 7.5), 0.65M sorbitol and 0.1 mM DTT) and subjected to ultra sonication at 50W for 5 minutes. The mixture was centrifuged at 10,000 x g for 20 minutes, and the supernatant was again centrifuged at 125,000 x g for 70 minutes. The precipitates were suspended in 2.0 ml of 0.1M potassium phosphate buffer (pH 7.4).
A mixture of 3.6 ml of a 100 mM potassium phosphate buffer (pH 7.4) and 100 μl of a 20 mM NADPH aqueous solution was preincubated at 37° C. for 5 minutes. […] Each 1.0 ml of the mixture was sampled at 0, 2 and 10 minutes and centrifugated. After 2.0 ml each of dichloromethane was added, the sample mixtures were vigorously agitated and centrifugated. The dichloromethane layer (1.0 ml) was evaporated to dryness and the residue was treated in the same manner as in Example 6.

SMILES: CC(=O)[C@@]1(O)CC[C@H]2[C@@H]3CCC4=CC(=O)CC[C@]4(C)[C@H]3CC[C@@]21C [17-hydroxyprogesterone]
- C17-20-lyase activity against 17-hydroxyprogesterone [1]: almost no C17-20 -lyase activity

- conversion of pregnenolone to 17-hydroxypregnenolone ([2]; 2 h): 28%
SMILES: CC(=O)[C@H]1CC[C@H]2[C@@H]3CC=C4C[C@@H](O)CC[C@]4(C)[C@H]3CC[C@]12C [pregnenolone]

SMILES: CC(=O)[C@H]1CC[C@H]2[C@@H]3CCC4=CC(=O)CC[C@]4(C)[C@H]3CC[C@]12C [progesterone]
- added progesterone converted to 17-hydroxyprogesterone ([3]; 2 µM): 88%
- added progesterone converted to 17-hydroxyprogesterone ([3]; 10 µM): 49%
- added progesterone converted to 17-hydroxyprogesterone ([3]; 50 µM): 17%
- conversion of progesterone to 17-hydroxyprogesterone ([2]; 5 h): 87%
- conversion of progesterone to 17-hydroxyprogesterone ([2]; 23 h): 97%
